target: α-Glucosidase; assay: α-Glucosidase inhibitory activity assay (4-nitrophenyl α-glucopyranoside substrate, absorbance at 405 nm); format: biochemical, Saccharomyces cerevisiae; conditions: 0.26 U/mL enzyme, pH 6.8, 37°C; mean ± SEM, triplicate
Method: After incubation at 37°C for 10 min, 100 μL of the substrate, 4-nitrophenyl α-glucopyranoside (5 mM, in potassium phosphate buffer) was added to the mixture. The enzymatic reaction was allowed to proceed at 37°C for 20 min and stopped by addition of 100 μL of 0.2 M NaCO3. 4-Nitrophenol absorptions were subsequently measured at 405 nm using a spectrophotometer. […] The IC50 value was defined as the concentration of α-glucosidase inhibitor required to inhibit 50% of α-glucosidase activity under the assay conditions. Experiments were performed in triplicate, and all results are expressed as mean ± SEM.

Structure (SMILES) | IC50 [mM]
CC1(C(=O)O)CCCC2(C)c3c(C=O)c4c(c(O)c3CCC12)COC4=O (centres unmarked) [Compound 1, 14-hydroxyabieta-8,11,13-triene-11-carbaldehyde-18-oic-12-carboxy-13-(1-hydroxy-1-methylethyl)-lactone] | 0.379 ± 0.016
CC1(C(=O)O)CCCC2(C)c3cc4c(c(O)c3CCC12)COC4=O (centres unmarked) [Compound 2, 14-hydroxyabieta-8,11,13-triene-17-oic-12-carboxy-13-(1-hydroxy-1-methylethyl)-lactone] | 0.624 ± 0.026
CC1=C(CCc2ccoc2)C2(C)CCCC(C)(CO)C2CC1 (centres unmarked) [Compound 4, 15,16-eposy-8,13(16),14-labdatrien-19-ol] | 0.067 ± 0.003
CC1=C(CCc2ccoc2)C2(C)CCCC(C)(C(=O)O)C2CC1 (centres unmarked) [Compound 5, phlomisoic acid] | 0.482 ± 0.019
CC1=C(CCc2ccoc2)C2(C)CCCC(C)(C)C2CC1 (centres unmarked) [Compound 6, 15,16-eposy-8,13(16),14-labdatrien] | 0.21 ± 0.01
C[C@@H]1O[C@@H](O[C@@H]2[C@@H](O)[C@H](OCCc3ccc(O)c(O)c3)O[C@H](CO)[C@H]2OC(=O)/C=C/c2ccc(O)c(O)c2)[C@H](O)[C@H](O)[C@H]1O [Compound 7, acteoside] | 0.518 ± 0.017
C[C@@H]1O[C@@H](O[C@@H]2[C@@H](O)[C@H](OCCc3ccc(O)c(O)c3)O[C@H](COC(=O)/C=C/c3ccc(O)c(O)c3)[C@H]2O)[C@H](O)[C@H](O)[C@H]1O [Compound 8, isoacteoside] | 1.2 ± 0.032
O=c1cc(-c2ccc(O)c(O)c2)oc2cc(O)cc(O)c12 [Compound 11, luteolin] | 0.428 ± 0.018
CC1OC(Oc2c(-c3ccc(O)c(O)c3)oc3cc(O)cc(O)c3c2=O)C(O)C(O)C1O (centres unmarked) [Compound 12, quercetin-3-rhamnoside] | 0.562 ± 0.021
CCCCCCCc1c(O)cc(CC=C(C)C)c(O)c1C=O [Compound 17, flavoglaucin] | 0.229 ± 0.017
CCCCC/C=C/c1c(O)cc(CC=C(C)C)c(O)c1C=O [Compound 18, tetrahydroauroglaucin] | 0.283 ± 0.013
CCC/C=C/C=C/c1c(O)cc(CC=C(C)C)c(O)c1C=O [Compound 19, dihydroauroglaucin] | 0.255 ± 0.013
CCCCCc1cc2c(C=O)c(O)c(CC=C(C)C)cc2o1 [Compound 20, 2-(2′,3-epoxy-1′-heptenyl)-6-hydroxy-5-(3″-methyl-2″-butenyl) benzaldehyde] | 0.371 ± 0.015

system: α-D-glucosidase; assay: TLC bioautographic assay for α-glucosidase inhibitors; format: biochemical; conditions: S1 Fig, subfractions 20 μL, ethyl acetate fraction 5 mg/mL, acarbose 1 mg/mL, 4 μL, qualitative
Description: In the present work, a high-performance thin-layer chromatographic system (CAMAG, Switzerland) equipped with an automatic TLC Sampler 4 and a Reprostar 3 with a 12-bit charge-coupled device camera for photo-documentation and controlled by WinCATS-4 software was used. […] After migration of the samples with appropriate solvents or no migration, the plates were inspected under ultraviolet light (366 nm) and then subjected to bioautographic assay as described below.
TLC bioautographic assay: TLC bioautographic assay was carried out as described previously in terms of reaction principle and response system but with slight modifications. First, the concentration of α-glucosidase was reduced from 10 U/mL to 2.5 U/mL. Second, the plate was dipped into the reaction solutions (including the enzyme solution, the substrate solution, and the coloration solution), instead of being sprayed with them. Third, the conditions for enzyme incubation were changed from room temperature for 60 min to 37°C for 30 min. Briefly, α-D-glucosidase (750 U) was dissolved in 75 mL of buffer solution (10.25 g of sodium acetate in 250 mL with addition of 0.1 M acetic acid to pH 7.5). The stock solution was kept at -20°C. A stock solution of 25 mL was diluted with the same buffer solution to 100 mL as the enzyme solution, and a substrate solution of 1 mg/mL 2-naphthyl-α-D-glucopyranoside in ethanol was prepared. […]

Structure (SMILES) | α-glucosidase inhibitory activity in bioautographic chromatogram (white spots), screening
C[C@H]1O[C@H](O[C@H]2[C@H](O)[C@@H](O)[C@@H](O[C@H]3[C@H](O)[C@@H](O)C(O)O[C@@H]3CO)O[C@@H]2CO)[C@H](O)[C@@H](O)[C@@H]1N[C@H]1C=C(CO)[C@@H](O)[C@H](O)[C@H]1O (some centres unmarked) [Acarbose, acarbose] | produced white spots

system: not given; assay: not given; parameters: method as in PMID 23850835, PMID 18460146; conditions: previous toxicity studies; ref [23]–[25]; cited from earlier work

Structure (SMILES) | toxicity
C[C@@H]1O[C@@H](O[C@@H]2[C@@H](O)[C@H](OCCc3ccc(O)c(O)c3)O[C@H](CO)[C@H]2OC(=O)/C=C/c2ccc(O)c(O)c2)[C@H](O)[C@H](O)[C@H]1O [Compound 7, acteoside] | nontoxic
COc1ccc(-c2cc(=O)c3c(O)cc(OC4OC(COC5OC(C)C(O)C(O)C5O)C(O)C(O)C4O)cc3o2)cc1 (centres unmarked) [Compound 10, acacetin-7-rutinoside] | nontoxic
CC1OC(Oc2c(-c3ccc(O)c(O)c3)oc3cc(O)cc(O)c3c2=O)C(O)C(O)C1O (centres unmarked) [Compound 12, quercetin-3-rhamnoside] | nontoxic

Source: article PMC4319760, “Rapid Identification of α-Glucosidase Inhibitors from Phlomis tuberosa by Sepbox Chromatography and Thin-Layer Chromatography Bioautography” (PLoS ONE, 2015)
